Data published in patent publication US8895733B2 (Novartis AG, priority 2010, dated 2014).

Each compound was assayed against T1, Nav 1.7 (Homo sapiens, UniProt Q15858) (assay: Whole-cell voltage clamp electrophysiology, automated patch clamp (marker c in Table of Examples)). Settings: marker c = Automated patch clamp data; read-out: Nav 1.7 activity.
T1 construct: expressed in transfected cells
Format: cell-based
Procedure, shortened: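 A voltage protocol weighted toward inactivated-state block was used to test compounds on stably expressing cells, with pulses from −65 mV holding to −10 mV test and −100 mV. Currents came from whole-cell automated patch-clamp recordings, either IonWorks Quattro or other automated instruments, usually in perforated-patch mode.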

T1 sequence (Q15858 whole entry): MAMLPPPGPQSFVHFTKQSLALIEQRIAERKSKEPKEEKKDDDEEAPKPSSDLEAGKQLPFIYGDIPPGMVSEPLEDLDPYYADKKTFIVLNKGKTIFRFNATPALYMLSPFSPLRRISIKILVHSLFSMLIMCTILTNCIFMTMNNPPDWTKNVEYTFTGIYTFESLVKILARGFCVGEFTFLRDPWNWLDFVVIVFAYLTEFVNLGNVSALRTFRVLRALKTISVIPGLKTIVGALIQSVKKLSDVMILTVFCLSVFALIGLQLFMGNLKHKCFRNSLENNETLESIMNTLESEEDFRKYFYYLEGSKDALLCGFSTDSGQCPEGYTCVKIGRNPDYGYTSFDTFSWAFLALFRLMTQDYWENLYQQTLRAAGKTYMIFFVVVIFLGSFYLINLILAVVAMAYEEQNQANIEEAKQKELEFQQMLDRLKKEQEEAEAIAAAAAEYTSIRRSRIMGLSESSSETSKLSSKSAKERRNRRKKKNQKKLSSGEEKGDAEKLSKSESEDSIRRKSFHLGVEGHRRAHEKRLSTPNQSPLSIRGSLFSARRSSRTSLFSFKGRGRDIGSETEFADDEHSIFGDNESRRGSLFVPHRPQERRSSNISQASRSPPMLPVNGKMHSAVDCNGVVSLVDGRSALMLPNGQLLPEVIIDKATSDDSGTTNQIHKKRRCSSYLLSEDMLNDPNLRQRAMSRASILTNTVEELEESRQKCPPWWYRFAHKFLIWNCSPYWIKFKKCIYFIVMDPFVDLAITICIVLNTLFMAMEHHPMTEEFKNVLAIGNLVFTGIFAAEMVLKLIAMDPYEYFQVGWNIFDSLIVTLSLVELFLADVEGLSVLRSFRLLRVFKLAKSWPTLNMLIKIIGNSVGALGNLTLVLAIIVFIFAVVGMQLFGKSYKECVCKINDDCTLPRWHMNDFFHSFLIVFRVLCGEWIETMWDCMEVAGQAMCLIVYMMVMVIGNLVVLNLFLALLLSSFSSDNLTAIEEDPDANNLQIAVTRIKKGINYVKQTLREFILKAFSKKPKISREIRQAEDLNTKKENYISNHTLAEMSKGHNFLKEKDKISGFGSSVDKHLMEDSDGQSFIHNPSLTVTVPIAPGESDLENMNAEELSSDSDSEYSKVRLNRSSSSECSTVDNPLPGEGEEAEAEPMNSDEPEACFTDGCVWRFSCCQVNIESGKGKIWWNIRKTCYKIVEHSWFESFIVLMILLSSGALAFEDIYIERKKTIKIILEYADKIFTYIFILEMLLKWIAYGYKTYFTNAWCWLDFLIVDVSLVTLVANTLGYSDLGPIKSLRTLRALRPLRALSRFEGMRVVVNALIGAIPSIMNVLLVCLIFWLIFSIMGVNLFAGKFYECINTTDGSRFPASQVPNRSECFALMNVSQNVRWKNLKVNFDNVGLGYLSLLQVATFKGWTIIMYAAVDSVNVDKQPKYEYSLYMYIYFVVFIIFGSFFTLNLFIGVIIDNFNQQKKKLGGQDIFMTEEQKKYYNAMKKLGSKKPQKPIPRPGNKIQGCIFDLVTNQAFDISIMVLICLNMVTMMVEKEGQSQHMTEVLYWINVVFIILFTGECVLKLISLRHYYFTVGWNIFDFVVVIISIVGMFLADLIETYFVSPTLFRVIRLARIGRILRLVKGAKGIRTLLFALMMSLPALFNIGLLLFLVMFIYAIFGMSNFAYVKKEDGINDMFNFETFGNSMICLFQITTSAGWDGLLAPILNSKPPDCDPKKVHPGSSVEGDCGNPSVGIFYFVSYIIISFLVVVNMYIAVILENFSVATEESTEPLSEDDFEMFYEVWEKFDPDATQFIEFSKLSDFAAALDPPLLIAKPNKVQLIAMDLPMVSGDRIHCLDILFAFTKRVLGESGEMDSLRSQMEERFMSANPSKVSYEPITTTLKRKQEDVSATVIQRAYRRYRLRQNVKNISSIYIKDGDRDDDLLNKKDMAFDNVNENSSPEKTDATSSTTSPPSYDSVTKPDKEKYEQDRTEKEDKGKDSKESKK

Compound | IC50 [µM]
CN(c1nc(N)nc(-c2noc(-c3ccc(OCC(F)(F)F)nc3)n2)n1)c1ccc(F)cc1F [Example 417, 2-N-(2,4-difluorophenyl)-2-N-methyl-6-{5-[6-(2,2,2-trifluoroethoxy)pyridin-3-yl]-1,2,4-oxadiazol-3-yl}-1,3,5-triazine-2,4-diamine] | 0.028
CN(c1ccccc1)c1nc(N)nc(-c2noc(C(=O)N3CCC(CSCC(F)(F)F)CC3)n2)n1 [Example 401, 2-N-Methyl-2-N-phenyl-6-{5-[(4-{[(2,2,2-trifluoroethyl)sulfanyl]methyl}piperidin-1-yl)carbonyl]-1,2,4-oxadiazol-3-yl}-1,3,5-triazine-2,4-diamine] | 1.04
COc1ccccc1Cc1nc(-c2nc(N)nc(N(C)c3ccccc3)n2)no1 [Example 199, 6-{5-[(2-methoxyphenyl)methyl]-1,2,4-oxadiazol-3-yl}-2-N-methyl-2-N-phenyl-1,3,5-triazine-2,4-diamine] | 8.73
Nc1nc(Nc2ccccc2)nc(-c2noc(N3CCCCC3)n2)n1 [Example 221, 2-N-Phenyl-6-[5-(piperidin-1-yl)-1,2,4-oxadiazol-3-yl]-1,3,5-triazine-2,4-diamine] | 0.729
CN(c1ccccc1)c1nc(N)nc(-c2noc(-c3ccc(OCC(F)(F)F)cn3)n2)n1 [Example 340, 2-N-methyl-2-N-phenyl-6-{5-[5-(2,2,2-trifluoroethoxy)pyridin-2-yl]-1,2,4-oxadiazol-3-yl}-1,3,5-triazine-2,4-diamine] | 0.818
CC(C)CN1CCC(c2nc(-c3nc(N)nc(N(C)c4ccccc4)n3)no2)CC1 [Example 510, 2-N-methyl-6-{5-[1-(2-methylpropyl)piperidin-4-yl]-1,2,4-oxadiazol-3-yl}-2-N-phenyl-1,3,5-triazine-2,4-diamine] | 1.26
CN(c1ccccc1)c1nc(N)nc(-c2noc(-c3ccc(Cl)nc3)n2)n1 [Example 418, 6-[5-(6-chloropyridin-3-yl)-1,2,4-oxadiazol-3-yl]-2-N-methyl-2-N-phenyl-1,3,5-triazine-2,4-diamine] | 1.64
CN(c1ccccc1)c1nc(N)nc(-c2noc(-c3ccnn3C)n2)n1 [Example 253, 2-N-methyl-6-[5-(1-methyl-1H-pyrazol-5-yl)-1,2,4-oxadiazol-3-yl]-2-N-phenyl-1,3,5-triazine-2,4-diamine] | 4.56
CN(c1ccccc1)c1nc(N)nc(-c2noc(-c3cccnc3C(=O)OCC3CC3)n2)n1 [Example 378, cyclopropylmethyl 3-(3-{4-amino-6-[methyl(phenyl)amino]-1,3,5-triazin-2-yl}-1,2,4-oxadiazol-5-yl)pyridine-2-carboxylate] | 0.399
CN(c1ccc(F)cc1)c1nc(N)nc(-c2noc(-c3ccc(OCC(F)(F)F)nc3)n2)n1 [Example 410, 2-N-(4-fluorophenyl)-2-N-methyl-6-{5-[6-(2,2,2-trifluoroethoxy)pyridin-3-yl]-1,2,4-oxadiazol-3-yl}-1,3,5-triazine-2,4-diamine] | 1.15
CN(c1ccccc1)c1nc(N)nc(-c2noc(-c3cnccn3)n2)n1 [Example 468, 2-N-methyl-2-N-phenyl-6-[5-(pyrazin-2-yl)-1,2,4-oxadiazol-3-yl]-1,3,5-triazine-2,4-diamine] | 8.91

Now from value to compound:

IC50 [µM] | Compound
0.719 | CN(c1ccccc1)c1nc(N)nc(-c2noc(C(=O)N3CCC(COCCC(F)(F)F)CC3)n2)n1 [Example 464, 2-N-Methyl-2-N-phenyl-6-[5-({4-[(3,3,3-trifluoropropoxy)methyl]piperidin-1-yl}carbonyl)-1,2,4-oxadiazol-3-yl]-1,3,5-triazine-2,4-diamine]
0.797 | CC(C)S(=O)(=O)N1CCC(c2nc(-c3nc(N)nc(Nc4ccccc4)n3)no2)CC1 [Example 515, 2-N-phenyl-6-{5-[1-(propane-2-sulfonyl)piperidin-4-yl]-1,2,4-oxadiazol-3-yl}-1,3,5-triazine-2,4-diamine]
0.338 | CN(c1ccccc1)c1nc(N)nc(-c2noc(-c3cccnc3COCC(F)(F)F)n2)n1 [Example 301, 2-N-methyl-2-N-phenyl-6-(5-{2-[(2,2,2-trifluoroethoxy)methyl]pyridin-3-yl}-1,2,4-oxadiazol-3-yl)-1,3,5-triazine-2,4-diamine]
3.26 | CN(c1ccccc1)c1nc(N)nc(-c2noc(C(=O)N3CCCCC3)n2)n1 [Example 277, 2-N-methyl-2-N-phenyl-6-{5-[(piperidin-1-yl)carbonyl]-1,2,4-oxadiazol-3-yl}-1,3,5-triazine-2,4-diamine]
3.03 | CN(c1ccccc1)c1nc(N)nc(-c2noc(C(=O)N3CCC(COCC(F)(F)F)CC3)n2)n1 [Example 460, 2-N-methyl-2-N-phenyl-6-[5-({4-[(2,2,2-trifluoroethoxy)methyl]piperidin-1-yl]carbonyl)-1,2,4-oxadiazol-3-yl]-1,3,5-triazine-2,4-diamine]
0.056 | CC(OCC(F)(F)F)c1ccc(-c2nc(-c3nc(N)nc(N(C)c4ccccc4)n3)no2)nc1 (stereo not drawn) [Example 358, 2-N-Methyl-2-N-phenyl-6-(5-{5-[1-(2,2,2-trifluoroethoxy)ethyl]pyridin-2-yl}-1,2,4-oxadiazol-3-yl)-1,3,5-triazine-2,4-diamine]
> 6.59 | CN(c1ccccc1)c1nc(N)nc(-c2noc(-c3ncccc3NCC3CC3)n2)n1 [Example 487, 6-{5-[3-(Cyclopropylmethylamino)-pyridin-2-yl]-[1,2,4]oxadiazol-3-yl}-N-methyl-N-phenyl-[1,3,5]triazine-2,4-diamine]
0.328 | CN(c1ccccc1)c1nc(N)nc(-c2noc(-c3ncccc3C(F)(F)F)n2)n1 [Example 348, 2-N-methyl-2-N-phenyl-6-{5-[3-(trifluoromethyl)pyridin-2-yl]-1,2,4-oxadiazol-3-yl}-1,3,5-triazine-2,4-diamine]
4.93 | CN(c1ccccc1)c1nc(N)nc(-c2noc(-c3ncccc3C(=O)NCC(F)(F)F)n2)n1 [Example 381, 2-(3-{4-amino-6-[methyl(phenyl)amino]-1,3,5-triazin-2-yl}-1,2,4-oxadiazol-5-yl)-N-(2,2,2-trifluoroethyl)pyridine-3-carboxamide]
5.99 | CN(c1ccccc1)c1nc(N)nc(-c2noc(N3CCN(S(=O)(=O)CC(F)(F)F)CC3)n2)n1 [Example 389, 2-N-methyl-2-N-phenyl-6-(5-{4-[(2,2,2-trifluoroethane)sulfonyl]piperazin-1-yl}-1,2,4-oxadiazol-3-yl)-1,3,5-triazine-2,4-diamine]
1.97 | CN(c1ccccc1)c1nc(N)nc(-c2noc(-c3nc(C(F)(F)F)cs3)n2)n1 [Example 345, 2-N-methyl-2-N-phenyl-6-{5-[4-(trifluoromethyl)-1,3-thiazol-2-yl]-1,2,4-oxadiazol-3-yl}-1,3,5-triazine-2,4-diamine]
4.56 | CN(c1ccccc1)c1nc(N)nc(-c2noc(C3CCN(S(=O)(=O)c4ccccc4)C3)n2)n1 (stereo not drawn) [Example 203, 6-{5-[1-(benzenesulfonyl)pyrrolidin-3-yl]-1,2,4-oxadiazol-3-yl}-2-N-methyl-2-N-phenyl-1,3,5-triazine-2,4-diamine]

Same assay, conditions: marker c: Automated patch clamp data; read-out: Nav 1.7 activity

Compound | IC50 [µM]
COc1cc(F)ccc1-c1nc(-c2nc(N)nc(N(C)c3cccc(C)c3)n2)no1 [Example 187, 6-[5-(4-fluoro-2-methoxyphenyl)-1,2,4-oxadiazol-3-yl]-2-N-methyl-2-N-(3-methylphenyl)-1,3,5-triazine-2,4-diamine] | 0.458
COc1cccc(-c2nc(-c3nc(N)nc(N(C)c4cccc(Cl)c4)n3)no2)c1 [Example 83, N-(3-Chloro-phenyl)-6-[5-(3-methoxy-phenyl)-[1,2,4]oxadiazol-3-yl]-N-methyl-[1,3,5]triazine-2,4-diamine] | 0.691
CN(C)CCN(c1ccccc1)c1nc(N)nc(-c2noc(-c3ccco3)n2)n1 [Example 69, N-(2-Dimethylamino-ethyl)-6-(5-furan-2-yl-[1,2,4]oxadiazol-3-yl)-N-phenyl-[1,3,5]triazine-2,4-diamine] | 1.37
CN(c1ccccc1)c1nc(N)nc(-c2noc(-c3ccc(C(=O)N4CCOCC4)s3)n2)n1 [Example 79, (5-{3-[4-Amino-6-(methyl-phenyl-amino)-[1,3,5]triazin-2-yl]-[1,2,4]oxadiazol-5-yl}-thiophen-2-yl)-morpholin-4-yl-methanone] | 0.977
CN(c1ccccc1)c1nc(N)nc(-c2noc(N3CCCC3)n2)n1 [Example 131, N-Methyl-N-phenyl-6-(5-pyrrolidin-1-yl-[1,2,4]oxadiazol-3-yl)-[1,3,5]triazine-2,4-diamine] | 5.11

Second part, the compound after the results:

IC50 [µM] | Compound
0.923 | Cc1ccccc1-c1nc(-c2nc(N)nc(N(C)c3ccccc3)n2)no1 [Example 27, N-Methyl-N-phenyl-6-(5-o-tolyl-[1,2,4]oxadiazol-3-yl)-[1,3,5]triazine-2,4-diamine]
0.306 | CC(C)SCC1CCN(c2nc(-c3nc(N)nc(N(C)c4ccccc4)n3)no2)CC1 [Example 177, 2-N-methyl-2-N-phenyl-6-(5-{4-[(propan-2-ylsulfanyl)methyl]piperidin-1-yl}-1,2,4-oxadiazol-3-yl)-1,3,5-triazine-2,4-diamine]
8.98 | CC(=O)N1CCC(c2nc(-c3nc(N)nc(N(C)c4ccccc4)n3)no2)CC1 [Example 162, 1-[4-(3-{4-amino-6-[methyl(phenyl)amino]-1,3,5-triazin-2-yl}-1,2,4-oxadiazol-5-yl)piperidin-1-yl]ethan-1-one]
0.222 | Nc1nc(-c2noc(-c3ccc(OCC(F)(F)F)nc3)n2)nc(N(CC(F)(F)F)c2ccccc2)n1 [Example 150, 2-N-phenyl-6-{5-[6-(2,2,2-trifluoroethoxy)pyridin-3-yl]-1,2,4-oxadiazol-3-yl}-2-N-(2,2,2-trifluoroethyl)-1,3,5-triazine-2,4-diamine]
3.31 | CN(c1ccccc1)c1nc(N)nc(-c2noc(-c3ccc(F)nc3)n2)n1 [Example 158, 6-[5-(6-fluoropyridin-3-yl)-1,2,4-oxadiazol-3-yl]-2-N-methyl-2-N-phenyl-1,3,5-triazine-2,4-diamine]
